Experimental data from patent US20260092057A1, “BCL-XL/BCL-2 DEGRADERS AND USES THEREOF” (Kymera Therapeutics, Inc., priority 2022, published 2026).
Like-named read-outs stand apart in the source and are kept apart here.

What was measured:
Assay type in all cases: cell-based
MOLT-4 cells = assay: CTG (CellTiter-Glo) cell viability assay, MOLT-4; conditions: MOLT-4, 3 day, read-out: CTG Cell Viability Assay - MOLT-4 3 day: Average external-IC50
In short: (§1)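 Viability read by CellTiter-Glo luminescence after 3 days' compound exposure at 37 °C under 5% CO2, with 10,000 cells per well. Dosing was nine 1:3 dilutions starting at 10 µM, DMSO normalized to 0.2%; IC50 values come from three-parameter logistic curve fitting.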

BCL-XL = molecular target: T1, BCL-XL (Homo sapiens, UniProt Q07817); assay: BCL-XL degradation assay in MOLT-4 cells (ELISA, 6 h); conditions: for DC50: read-out: Bcl-xL ELISA in MOLT-4 degradation 6 h: External Abs-DC50
T1 construct: BCL-XL degradation results in MOLT-4 cells for compounds of the invention; endogenous in cells; host or cells: MOLT-4
T1 sequence (Q07817 whole entry): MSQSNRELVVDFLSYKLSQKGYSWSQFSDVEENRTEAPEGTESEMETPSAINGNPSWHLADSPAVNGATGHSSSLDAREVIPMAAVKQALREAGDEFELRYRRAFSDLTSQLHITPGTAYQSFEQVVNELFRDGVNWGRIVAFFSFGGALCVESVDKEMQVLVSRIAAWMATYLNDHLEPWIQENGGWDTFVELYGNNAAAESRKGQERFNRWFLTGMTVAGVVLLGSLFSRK

Caki-2 cells = assay: CTG (CellTiter-Glo) cell viability assay, Caki-2; conditions: Caki-2, 3-day, read-out: CTG Chempartner/PHA- Caki-2 3-day: Average external-IC50
In short: as §1

Structure (SMILES)	IC50 (MOLT-4 cells; Homo sapiens, MOLT-4, 72 h)	Dmax (BCL-XL)	DC50 (BCL-XL)	IC50 (Caki-2 cells; Homo sapiens, CAKI-2, 72 h)	IC50 (MOLT-4 cells)	Bcl-xL ELISA in MOLT-4 degradation 6 h: Dmax % (BCL-XL)	IC50 (Caki-2 cells)
C#Cc1ccc([C@H](C)NC(=O)[C@@H]2C[C@@H](O)CN2C(=O)[C@@H](NC(=O)CCCCCC(=O)N2CCN(CC[C@H](CSc3ccccc3)Nc3ccc(S(=O)(=O)NC(=O)c4ccc(N5CCC([C@@H](O)c6ccccc6-c6ccc(Cl)cc6)CC5)cc4)cc3S(=O)(=O)C(F)(F)F)CC2)C(C)(C)C)cc1 (single isomer, unassigned) [I-29]	100 to 1000 nM	> 75%	10 to 100 nM	10000 to 30000 nM	–	–	–
C#Cc1ccc([C@H](CO)NC(=O)[C@@H]2C[C@@H](O)CN2C(=O)[C@@H](NC(=O)CCCCCC(=O)N2CCN(CCCNc3ccc(S(=O)(=O)NC(=O)c4ccc(N5CCN(CC6=C(c7ccc(Cl)cc7)CC(C)(C)CC6)CC5)cc4Oc4cnc5[nH]ccc5c4)cc3S(=O)(=O)C(F)(F)F)CC2)C(C)(C)C)cc1 [I-102]	< 100 nM	> 75%	< 10 nM	> 30000 nM	–	–	–
Cc1ncsc1-c1ccc([C@H](C)NC(=O)[C@@H]2C[C@@H](O)CN2C(=O)[C@@H](NC(=O)CCCCCC(=O)N2CCCN(CCCNc3ccc(S(=O)(=O)NC(=O)c4ccc(N5CCN(CC6=C(c7ccc(Cl)cc7)CC(C)(C)CC6)CC5)cc4Oc4cnc5[nH]ccc5c4)cc3S(=O)(=O)C(F)(F)F)CC2)C(C)(C)C)cc1 [I-106]	< 100 nM	50 to 75%	10 to 100 nM	> 30000 nM	–	–	–
Cc1ncsc1-c1ccc(CNC(=O)[C@@H]2C[C@@H](O)CN2C(=O)[C@@H](NC(=O)C2(F)CC2)C(C)(C)C)c(OCCN2CCN(CC[C@H](CSc3ccccc3)Nc3ccc(S(=O)(=O)NC(=O)c4ccc(N5CCC6(CC5)CC(N5CCC[C@H]5c5ccccc5C5CC5)C6)cc4)cc3S(=O)(=O)C(F)(F)F)CC2)c1 [I-31, (2S,4R)—N-(2-(2-(4-((R)-3-((4-(N-(4-(2-((S)-2-(2-cyclopropylphenyl)pyrolidine-1-yl)-7-azaspiro[3.5]nonan-7-yl)benzoyl)sulfamoyl)-2-((trifluoromethyl)sulfonyl)phenyl)amino)-4-(phenylthio)butyl)piperazin-1-yl)ethoxy)-4 (4-methylthiazol-5-yl)benzyl)-1-((S)-2-(1-fluorocyclopropanecarboxamido)-3,3-dimethylbutanoyl)-4-hydroxypyrrolidine-2-carboxamide]	100 to 1000 nM	50 to 75%	10 to 100 nM	< 5000 nM	–	–	–
Cc1ncsc1-c1ccc([C@H](C)NC(=O)[C@@H]2C[C@@H](O)CN2C(=O)[C@@H](NC(=O)CCCCCC(=O)N2CCN(CCCNc3ccc(S(=O)(=O)NC(=O)c4ccc(N5CCN(Cc6ccccc6-c6ccc(Cl)cc6)CC5)cc4Oc4cnc5[nH]ccc5c4)cc3S(=O)(=O)C(F)(F)F)CC2)C(C)(C)C)cc1 [I-51]	1000 to 3000 nM	50 to 75%	100 to 500 nM	> 30000 nM	–	–	–
Cc1ncsc1-c1ccc([C@H](C)NC(=O)[C@@H]2C[C@@H](O)CN2C(=O)[C@@H](NC(=O)CCCCCCC(=O)N2CCN(C(=O)c3ccc(-c4ccc(Cl)cc4)c(CN4CCN(c5ccc(C(=O)NS(=O)(=O)c6ccc(N[C@H](CCN(C)C)CSc7ccccc7)c([N+](=O)[O-])c6)cc5)CC4)c3)CC2)C(C)(C)C)cc1 [I-6]	> 3000 nM	< 50%	500 to 1000 nM	> 30000 nM	–	–	–
Cc1ncsc1-c1ccc(CNC(=O)[C@@H]2C[C@@H](O)CN2C(=O)[C@@H](NC(=O)CCCCCCC(=O)N2CCN(C[C@]3(C)CCC(c4ccc(Cl)cc4)=C(CN4CCN(c5ccc(C(=O)NS(=O)(=O)c6ccc(NCCCN7CCOCC7)c(S(=O)(=O)C(F)(F)F)c6)c(Oc6cnc7[nH]ccc7c6)c5)CC4)C3)CC2)C(C)(C)C)cc1 [I-134]	–	–	500 to 1000 nM	–	100 to 1000 nM	C (C (<50%))	< 5000 nM
C#Cc1ccc([C@H](C)NC(=O)[C@@H]2C[C@@H](O)CN2C(=O)[C@@H](NC(=O)CCCCCC(=O)N2CCN(CCCNc3ccc(S(=O)(=O)NC(=O)c4ccc(N5CCN(CC6=C(c7ccc(Cl)cc7)CC(C)(C)CC6)CC5)cc4Oc4cnc5[nH]ccc5c4)cc3S(=O)(=O)C(F)(F)F)CC2)C(C)(C)C)cc1F [I-105]	100 to 1000 nM	50 to 75%	100 to 500 nM	> 30000 nM	–	–	–
Cc1ncsc1-c1ccc([C@H](C)NC(=O)[C@@H]2C[C@@H](O)CN2C(=O)[C@@H](NC(=O)CCCCCCCCN2CCN(Cc3ccc(-c4ccc(Cl)cc4)c(CN4CCN(c5ccc(C(=O)NS(=O)(=O)c6ccc(N[C@H](CCN(C)C)CSc7ccccc7)c([N+](=O)[O-])c6)cc5)CC4)c3)CC2)C(C)(C)C)cc1 [I-9]	> 3000 nM	< 50%	500 to 1000 nM	> 30000 nM	–	–	–
Cc1ncsc1-c1ccc(CNC(=O)[C@@H]2C[C@@H](O)CN2C(=O)[C@@H](NC(=O)CCCCCC(=O)N2CC3(CN(CC[C@H](CSc4ccccc4)Nc4ccc(S(=O)(=O)NC(=O)c5ccc(N6CCN([C@@H](O)c7ccccc7-c7ccc(Cl)cc7)CC6)cc5)cc4S(=O)(=O)C(F)(F)F)C3)C2)C(C)(C)C)cc1 [I-125]	100 to 1000 nM	50 to 75%	10 to 100 nM	> 30000 nM	–	–	–
Cc1ncsc1-c1ccc([C@H](C)NC(=O)[C@@H]2C[C@@H](O)CN2C(=O)[C@@H](NC(=O)CCCCCCC(=O)N2CCN(CC[C@H](CSc3ccccc3)Nc3ccc(S(=O)(=O)NC(=O)c4ccc(N5CCC([C@@H](O)c6ccccc6-c6ccc(Cl)cc6)CC5)cc4)cc3S(=O)(=O)C(F)(F)F)CC2)C(C)(C)C)cc1 [I-120]	< 100 nM	50 to 75%	10 to 100 nM	10000 to 30000 nM	–	–	–
Cc1ncsc1-c1ccc([C@H](C)NC(=O)[C@@H]2C[C@@H](O)CN2C(=O)[C@@H](NC(=O)CNCCCNc2ccc(S(=O)(=O)NC(=O)c3ccc(N4CCN(CC5=C(c6ccc(Cl)cc6)CC(C)(C)CC5)CC4)cc3Oc3cnc4[nH]ccc4c3)cc2S(=O)(=O)C(F)(F)F)C(C)(C)C)cc1 [I-115]	> 3000 nM	–	–	> 30000 nM	–	–	–
Cc1ncsc1-c1ccc([C@H](C)NC(=O)[C@@H]2C[C@@H](O)CN2C(=O)[C@@H](NC(=O)CCCCCC(=O)N[C@@H]2CCN(CCCNc3ccc(S(=O)(=O)NC(=O)c4ccc(N5CCN(CC6=C(c7ccc(Cl)cc7)CC(C)(C)CC6)CC5)cc4Oc4cnc5[nH]ccc5c4)cc3S(=O)(=O)C(F)(F)F)C2)C(C)(C)C)cc1 [I-95]	> 3000 nM	–	–	> 30000 nM	–	–	–
Cc1ncsc1-c1ccc([C@H](C)NC(=O)[C@@H]2C[C@@H](O)CN2C(=O)[C@@H](NC(=O)CCCC(=O)N2CCN(CCCNc3ccc(S(=O)(=O)NC(=O)c4ccc(N5CCC([C@@H](O)c6ccccc6-c6ccc(Cl)cc6)CC5)cc4Oc4cnc5[nH]ccc5c4)cc3S(=O)(=O)C(F)(F)F)CC2)C(C)(C)C)cc1 (single isomer, unassigned) [I-59]	> 3000 nM	–	–	> 30000 nM	–	–	–
Cc1ncsc1-c1ccc([C@H](C)NC(=O)[C@@H]2C[C@@H](O)CN2C(=O)[C@@H](NC(=O)C2CCN(c3ccc(N(C)CCCNc4ccc(S(=O)(=O)NC(=O)c5ccc(N6CCN(CC7=C(c8ccc(Cl)cc8)CC(C)(C)CC7)CC6)cc5Oc5cnc6[nH]ccc6c5)cc4S(=O)(=O)C(F)(F)F)cc3)CC2)C(C)(C)C)cc1 [I-89]	> 3000 nM	–	–	> 30000 nM	–	–	–
C#Cc1ccc([C@H](C)NC(=O)[C@@H]2C[C@@H](O)CN2C(=O)[C@@H](NC(=O)CCCCCCC(=O)N2CCN(C[C@]3(C)CCC(c4ccc(Cl)cc4)=C(CN4CCN(c5ccc(C(=O)NS(=O)(=O)c6ccc(NCCCN7CCOCC7)c(S(=O)(=O)C(F)(F)F)c6)c(Oc6cnc7[nH]ccc7c6)c5)CC4)C3)CC2)C(C)(C)C)cc1 [I-138]	100 to 1000 nM	–	–	10000 to 30000 nM	–	–	–
Cc1ncsc1-c1ccc([C@H](C)NC(=O)[C@@H]2C[C@@H](O)CN2C(=O)[C@@H](NC(=O)CCCCCC(=O)N2CCN(c3ccc(-c4ccc(Cl)cc4)c([C@@H](O)C4CCN(c5ccc(C(=O)NS(=O)(=O)c6ccc(N[C@H](CCN(C)CCO)CSc7ccccc7)c(S(=O)(=O)C(F)(F)F)c6)cc5)CC4)c3)CC2)C(C)(C)C)cc1 (single isomer, unassigned) [I-114]	> 3000 nM	–	–	> 30000 nM	–	–	–
Cc1ncsc1-c1ccc([C@H](C)NC(=O)[C@@H]2C[C@@H](O)CN2C(=O)[C@@H](NC(=O)CCCCCC(=O)NCC[C@H](CSc2ccccc2)Nc2ccc(S(=O)(=O)NC(=O)c3ccc(N4CCC([C@H](O)c5ccccc5-c5ccc(Cl)cc5)CC4)cc3)cc2S(=O)(=O)C(F)(F)F)C(C)(C)C)cc1 [I-70]	> 3000 nM	–	–	> 30000 nM	–	–	–
Cc1ncsc1-c1ccc([C@H](C)NC(=O)[C@@H]2C[C@@H](O)CN2C(=O)[C@@H](NC(=O)CCCCCN(C)CCCNc2ccc(S(=O)(=O)NC(=O)c3ccc(N4CCC([C@@H](O)c5ccccc5-c5ccc(Cl)cc5)CC4)cc3Oc3cnc4[nH]ccc4c3)cc2S(=O)(=O)C(F)(F)F)C(C)(C)C)cc1 [I-66]	> 3000 nM	–	–	> 30000 nM	–	–	–
Cc1ncsc1-c1ccc(CNC(=O)[C@@H]2C[C@@H](O)CN2C(=O)[C@@H](NC(=O)C2(F)CC2)C(C)(C)C)c(OCCCCCCC(=O)N2CCN(Cc3ccc(-c4ccc(Cl)cc4)c(CN4CCN(c5ccc(C(=O)NS(=O)(=O)c6ccc(N[C@H](CCN(C)C)CSc7ccccc7)c([N+](=O)[O-])c6)cc5)CC4)c3)CC2)c1 [I-18]	> 3000 nM	–	–	> 30000 nM	–	–	–
Cc1ncsc1-c1ccc([C@H](C)NC(=O)[C@@H]2C[C@@H](O)CN2C(=O)[C@@H](NC(=O)CCCCCC(=O)N(C)CCCNc2ccc(S(=O)(=O)NC(=O)c3ccc(N4CCC([C@@H](O)c5ccccc5-c5ccc(Cl)cc5)CC4)cc3Oc3cnc4[nH]ccc4c3)cc2S(=O)(=O)C(F)(F)F)C(C)(C)C)cc1 [I-68]	> 3000 nM	–	–	> 30000 nM	–	–	–
